The test system of one assay is Bacillus subtilis (Bs). Kind of assay: Minimum inhibitory concentration (MIC) in nutrient agar. Type of assay: cell-based, Bacillus subtilis ATCC 8473. Particulars: 48 h. The essentials: (§1)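 Each compound is tested by agar incorporation in nutrient agar at two pH values, 6.8 and 8.2, using final concentrations from 500 down to 1.0 ppm. Inoculum: 10^8 CFU/ml applied with a multipoint replicator; plates are read for growth after 48 h incubation at 30° C.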

Assay [1] relates to Enterobacter aerogenes (Ea). Described as above. Format: cell-based, Enterobacter aerogenes ATCC 13048. Particulars: Klebsiella aerogenes, 48 h. The essentials: as §1
Assay [2] concerns Klebsiella pneumoniae (Kp). The assay is described as above. Type of assay: cell-based, Klebsiella pneumoniae ATCC 8308. Particulars: 48 h. In a few lines: as §1
Assay [3] concerns Pseudomonas aeruginosa (Pa). Described as above. Type of assay: cell-based, Pseudomonas aeruginosa ATCC 10145. The note with it: 48 hours. The essentials: as §1
The test system of assay [4] is Staphylococcus aureus (Sa). The description is as above. Type of assay: cell-based, Staphylococcus aureus ATCC 6538. Particulars: 48 h. In a few lines: as §1
Assay [5] relates to Saccharomyces cerevisiae (Sc). Kind of assay: Minimum inhibitory concentration (MIC) in malt yeast agar. Format: cell-based, Saccharomyces cerevisiae ATCC 4105. The note with it: 48 h, read-out: Minimum Inhibitory Concentration, Sc. The essentials: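 Compound dispersed in malt yeast agar at final 500, 250, 100, 50, 25, 10, 5, 2.5, 1.0 and 0 ppm (from 1% acetone/water solution); plates dried 24 h, then inoculated with saline/octylphenoxy polyethoxy ethanol suspensions of 7-day cultures diluted 1:9. Incubated at 30° C; read at 48 h for yeast, 72 h for fungi.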

The test system of the next assay is Fusarium oxysporum (Fo). The description is as above. Format: cell-based, Fusarium oxysporum ATCC 48112. The note with it: 72 h, read-out: Minimum Inhibitory Concentration, Fo. The essentials:
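Growth on plates was scored after 72 hours at 30° C, the MIC being the lowest of the agar concentrations tested (500, 250, 100, 50, 25, 10, 5, 2.5, 1.0 ppm; zero as control). Fungi came from seven-day slant cultures, suspended in saline plus surfactant and diluted 1:9.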

The next assay deals with marine organisms. Put plainly: Marine antifouling rating of coated test panels exposed to the marine environment. Particulars: scale 10 (completely free of growth) to 0 (completely covered). As to the method:
Test panels are prepared from clear, rigid polyvinyl chloride film that is 0.381×10^-3 m thick and has one textured surface. The test panels are 0.1524 m by 0.1524 m squares that have 0.00635 m holes punched at corners on 0.127 m centers. A 0.102 square template, with a 0.067 m diameter hole at the center, is attached to the center of the textured surface of the test panels.
A candidate marine antifoulant compound (1.0 g) is stirred into a resinous latex binder (9.0 g). A portion of the compound/binder mixture (1.5 g) is added to the center of the test panel and uniformly spread over the circular area inside the template.
Water is added dropwise as needed to properly spread the compound/binder mixture. The template prevents the compound/binder mixture from spreading beyond the uncovered area. The test panel is allowed to sit for between ten to thirty minutes until the edge of the spread compound/binder mixture has dried. The template is then removed. The test panel is then allowed to dry for 8 to 12 hours at room temperature.
Two test panels are prepared for each candidate marine antifoulant compound. Two control test panels are also prepared by only treating with the resinous latex binder. One test panel of each candidate marine […] compound is attached over a white background to the topside of an exposure support apparatus. The second test panel is attached over a black background to the underside of the exposure support apparatus. The exposure support apparatus is placed horizontally 0.0254 m under a marine surface with the white background topside facing up. The exposure support apparatus is exposed to the marine environment for both 3 and 6 weeks during which time the control test panels become substantially covered with mature marine organism growth on both the topside and underside exposures.
After being removed from the exposure support apparatus, each test panel is inspected and rated for marine organism growth on both the treated and untreated areas of the test panel. The marine organisms present on the treated and untreated areas are noted. The presence of algea spores and bacterial slime are noted but not included in rating each test panel. The test panels are rated on a scale from 10 (representing completely free of marine organism growth) to 0 (representing completely covered with marine organism growth).

Values after ≈ are worked out from the molar mass of the structure shown. Like-named read-outs stand apart in the source and are kept apart here.

For the compound `N#CC(C#N)=C1Sc2nc3cc([N+](=O)[O-])c([N+](=O)[O-])cc3nc2S1` [M, 6,7-dinitro-1,3-dithiolo-(4,5-b)-quinoxaline-2-ylidene-propanedinitrile], the MIC with Bacillus subtilis (Bs) (pH 6.8, read-out: Minimum Inhibitory Concentration, Bs) was 100 µg/mL (≈ 279 µM); with Bacillus subtilis (Bs) (pH 8.2, read-out: Minimum Inhibitory Concentration, Bs), 250 µg/mL (≈ 698 µM); in assay [1] (pH 6.8, read-out: Minimum Inhibitory Concentration, Ea), over 500 µg/mL; in assay [1] (pH 8.2, read-out: Minimum Inhibitory Concentration, Ea) it was over 500 µg/mL; in assay [2] (pH 6.8, read-out: Minimum Inhibitory Concentration, Kp), 50 µg/mL (≈ 140 µM); in assay [2] (pH 8.2, read-out: Minimum Inhibitory Concentration, Kp), over 500 µg/mL. In addition, the MIC in assay [3] (pH 6.8, 30° C.) was 500 µg/mL (≈ 1400 µM); in assay [3] (pH 8.2, 30° C.) it was over 500 µg/mL; in assay [4] (pH 6.8, read-out: Minimum Inhibitory Concentration, Sa), under 10 µg/mL; in assay [4] (pH 8.2, read-out: Minimum Inhibitory Concentration, Sa), 100 µg/mL (≈ 279 µM); in assay [5], 2.5 µg/mL (≈ 6.98 µM); in the assay with Fusarium oxysporum (Fo) it was 5 µg/mL (≈ 14 µM). Moreover, the “Marine Antifouling Rating, 3 Week Test, Top Panel” value with marine organisms (3 weeks, topside, white background) is given as 9. Further, in the assay on marine organisms (3 weeks, underside, black background), the “Marine Antifouling Rating, 3 Week Test, Bottom Panel” value turned out to be 9. In addition, the “Marine Antifouling Rating, 6 Week Test, Top Panel” value in the assay on marine organisms (6 weeks, topside, white background) was 5. Moreover, the “Marine Antifouling Rating, 6 Week Test, Bottom Panel” value with marine organisms (6 weeks, underside, black background) was determined as 1.

For the origin of these results see patent US5200409A, “Composition and use of substituted 1,3-dithiolo-and 1,4-dithiinoquinoxalines as an antimicrobial” (The Dow Chemical Company, priority 1992, dated 1993).
